According to paper PMC9540877, “Clinical Formulation Bridging of Gefapixant, a P2X3‐Receptor Antagonist, for the Treatment of Chronic Cough” (Clinical Pharmacology in Drug Development, 2022):

Experiments:
[1] = system: organic anion transporter P1B1; parameters: method as in PMID 34821075; settings: twice-daily gefapixant 45 mg; cited from earlier work
[2] = cited from earlier work
[3] = parameters: method as in PMID 35248186; settings: patients with RCC or UCC, COUGH-1 and COUGH-2; cited from earlier work
MATE1/2K = settings: cited from earlier work
[4] = Safety and tolerability in studies 1 to 4; assay type: in vivo, human
Description: Safety and tolerability for all studies were determined using clinical assessments, including physical examinations, vital signs, standard laboratory tests, 12‐lead electrocardiograms, and adverse events (AEs).

## COc1cc(C(C)C)c(Oc2cnc(N)nc2N)cc1S(N)(=O)=O [gefapixant, Gefapixant]
[1]
  effect on the pharmacokinetics of pitavastatin: no effect
[2]
  excreted metabolites, share of the gefapixant dose: 14%
  terminal half-life (t1/2): ≈ 7 hours
[3]
  24-hour cough frequency: significantly reduced
MATE1/2K
  effect of inhibiting MATE1/2K via pyrimethamine on gefapixant exposure: does not meaningfully increase
[4]; all 4 studies
  serious AEs: no serious AEs
  severity of all AEs: mild or moderate
[4]; studies 1 and 2
  most commonly reported AEs: taste related
[4]; studies 3 and 4
  most common AE: headache
